In brackets after ≈: the same amount, converted by molar mass. Read-outs that look alike come from different tables or passages of the source.
Key:
[1] = tested on: M. tuberculosis SIRE Ciprofloxacin resistant 22/22; format: cell-based, Mycobacterium tuberculosis; design: unit not given beside the values
[2] = tested on: M. tuberculosis SIRE Ciprofloxacin resistant 22/22; assay: tuberculostatic activity, broth microdilution MIC (Alamar blue); format: cell-based, Mycobacterium tuberculosis
[3] = Mycobacterium tuberculosis; read-out: Minimal inhibitory concentration
[4] = Mycobacterium tuberculosis, read-out: Minimal inhibitory concentration

Structure (SMILES) | MIC [2, 3] | other results
O=C(O)c1cn(C2CC2)c2cc(N3CCNCC3)c(F)cc2c1=O [Ciprofloxacin, reference compound] |  | MIC for reference drug in the presence of derivative 6 [1]: 8
CC1CCC(C(C)C)C(OCC(=O)N2CCN(c3cc4c(cc3F)c(=O)c(C(=O)O)cn4C3CC3)CC2)C1 (stereo not drawn) [Compound 1] | 32 µg/mL (≈ 60.6 µM) | 
CC1CCC(C(C)C)C(OC(=O)CN2CCN(c3cc4c(cc3F)c(=O)c(C(=O)O)cn4C3CC3)CC2)C1 (stereo not drawn) [Compound 2] | 16 µg/mL (≈ 30.3 µM) | 
CC1CCC(C(C)C)C(OC(=O)CCN2CCN(c3cc4c(cc3F)c(=O)c(C(=O)O)cn4C3CC3)CC2)C1 (stereo not drawn) [Compound 3] | 16 µg/mL (≈ 29.5 µM) | 
CC1CCC(C(C)C)C(OC(=O)CCCN2CCN(c3cc4c(cc3F)c(=O)c(C(=O)O)cn4C3CC3)CC2)C1 (stereo not drawn) [Compound 4] | 16 µg/mL (≈ 28.8 µM) | 
CC1CCC(C(C)C)C(OC(=O)CCCCN2CCN(c3cc4c(cc3F)c(=O)c(C(=O)O)cn4C3CC3)CC2)C1 (stereo not drawn) [Compound 5] | 16 µg/mL (≈ 28.1 µM) | 
CC(C)[C@@H]1CC[C@@H](C)C[C@H]1OC(=O)CCCCCN1CCN(c2cc3c(cc2F)c(=O)c(C(=O)O)cn3C2CC2)CC1 [Compound 6, 1‐cyclopropyl‐6‐fluoro‐7‐{4‐[6‐((1R,2S,5R)‐2‐isopropyl‐5‐methylcyclohexyloxy)‐6‐oxohexyl]piperazin‐1‐yl}‐4‐oxo‐1,4‐dihydroquinoline‐3‐carboxylic acid] | 8 µg/mL (≈ 13.7 µM) | 
CC1CCC(C(C)C)C(OC(=O)CCCCOC(=O)c2cn(C3CC3)c3cc(N4CCN(CCCCC(=O)OC5CC(C)CCC5C(C)C)CC4)c(F)cc3c2=O)C1 (stereo not drawn) [Compound 7] | 256 µg/mL (≈ 317 µM) | 
CC1CCC(C(C)C)C(OC(=O)CCCCCOC(=O)c2cn(C3CC3)c3cc(N4CCN(CCCCCC(=O)OC5CC(C)CCC5C(C)C)CC4)c(F)cc3c2=O)C1 (stereo not drawn) [Compound 8] | 256 µg/mL (≈ 306 µM) | 
Cc1ccc(C(C)C)c(OCC(=O)N2CCN(c3cc4c(cc3F)c(=O)c(C(=O)O)cn4C3CC3)CC2)c1 [Compound 9] | 128 µg/mL (≈ 245 µM) | 
Cc1ccc(C(C)C)c(OC(=O)CN2CCN(c3cc4c(cc3F)c(=O)c(C(=O)O)cn4C3CC3)CC2)c1 [Compound 10] | 128 µg/mL (≈ 245 µM) | 
Cc1ccc(C(C)C)c(OC(=O)CCN2CCN(c3cc4c(cc3F)c(=O)c(C(=O)O)cn4C3CC3)CC2)c1 [Compound 11] | 64 µg/mL (≈ 119 µM) | 
Cc1ccc(C(C)C)c(OC(=O)CCCN2CCN(c3cc4c(cc3F)c(=O)c(C(=O)O)cn4C3CC3)CC2)c1 [Compound 12] | 32 µg/mL (≈ 58.2 µM) | 
Cc1ccc(C(C)C)c(OC(=O)CCCCN2CCN(c3cc4c(cc3F)c(=O)c(C(=O)O)cn4C3CC3)CC2)c1 [Compound 13] | 32 µg/mL (≈ 56.8 µM) | 
Cc1ccc(C(C)C)c(OC(=O)CCCCCN2CCN(c3cc4c(cc3F)c(=O)c(C(=O)O)cn4C3CC3)CC2)c1 [Compound 14] | 16 µg/mL (≈ 27.7 µM) | 
Cc1ccc(C(C)C)c(OC(=O)CCCOC(=O)c2cn(C3CC3)c3cc(N4CCN(CCCC(=O)Oc5cc(C)ccc5C(C)C)CC4)c(F)cc3c2=O)c1 [Compound 15] | 256 µg/mL (≈ 333 µM) | 
Cc1ccc(C(C)C)c(OC(=O)CCCCCOC(=O)c2cn(C3CC3)c3cc(N4CCN(CCCCCC(=O)Oc5cc(C)ccc5C(C)C)CC4)c(F)cc3c2=O)c1 [Compound 16] | 256 µg/mL (≈ 311 µM) | 
CC[C@@H](CO)NCCN[C@@H](CC)CO [Ethambutol, reference compound] | 4 µg/mL (≈ 19.6 µM) | 
NNC(=O)c1ccncc1 [Isoniazid, reference compound] | 32 µg/mL (≈ 233 µM) | 
CC(=O)NC[C@H]1CN(c2ccc(N3CCOCC3)c(F)c2)C(=O)O1 [Linezolid, reference compound] |  | MIC [2, 4]: 8 µg/mL (≈ 23.7 µM); MIC for reference drug in the presence of derivative 6 [1]: 4
CO[C@H]1/C=C/O[C@@]2(C)Oc3c(C)c(O)c4c(O)c(c(/C=N/N5CCN(C)CC5)c(O)c4c3C2=O)NC(=O)/C(C)=C\C=C\[C@H](C)[C@H](O)[C@@H](C)[C@@H](O)[C@@H](C)[C@H](OC(C)=O)[C@@H]1C [Rifampicin, reference compound] |  | activity in words [2]: no activity; MIC [2, 4]: 256 µg/mL (≈ 311 µM)
[H]/N=C(/N)N[C@H]1[C@H](O)[C@@H](O)[C@H](O[C@@H]2O[C@@H](C)[C@](O)(C=O)[C@H]2O[C@@H]2O[C@@H](CO)[C@H](O)[C@@H](O)[C@@H]2NC)[C@@H](N/C(N)=N\[H])[C@@H]1O [Streptomycin, reference compound] | 32 µg/mL (≈ 55 µM) | 

Source: article PMC10539350 (Scientific Reports, 2023)
